From PMC10235985 (Proceedings of the National Academy of Sciences of the …, 2023)

Key:
hNK1R-407 mice = assay: Capsaicin-evoked mechanical allodynia; type: in vivo, mouse; conditions: 5 µL intrathecal; for duration of inhibition of capsaicin-evoked mechanical allodynia: 100 nM; for effect of higher dose on magnitude or duration of antinociception: 300 nM
[1] = test system: hNK1R-407, hNK1R-311, and wild-type mice; assay: SP-evoked mechanical allodynia; type: in vivo, mouse; conditions: AP 100 nM/5 µL coadministered with SP 1 µg/5 µL intrathecal; hNK1R-407, hNK1R-311, wild-type mice
[2] = test system: spinal neurons in NK1R-407 mice; set-up: species or system mouse; conditions: spinal cord slices
[3] = pKa measurement by potentiometric titration; type: physicochemical; conditions: 67% methanol aqueous solution
[4] = logD experiments, distribution between octanol and aqueous buffer; type: physicochemical; conditions: octanol/phosphate buffer, pH 7
Nluc-NK1R (human NK1R) [5] = target: T1, Nluc-NK1R (human NK1R) (Homo sapiens, UniProt P25103); assay: biochemical; type: binding
NK1R [6] = target: T2, NK1R (Homo sapiens, UniProt P25103); assay: cell-based
NK1R [7] = target: T2, NK1R; assay: Nuclear ERK activity, Nuc-EKAR FRET biosensor, HEK293T cells with human NK1R; type: cell-based
NK1R [8] = target: T2, NK1R; assay: ebBRET of SP-evoked mGαsq recruitment to early endosomes; type: cell-based; conditions: antagonist 10 µM added after 5 min SP; one phase decay
human NK1R-NP = human NK1R-NP (Homo sapiens, UniProt P25103); assay: NanoBiT-BRET; type: cell-based; conditions: NT 30 min, n = 5
Nluc-NK1R (human NK1R) [9] = target: T1, Nluc-NK1R (human NK1R); assay: NanoBRET saturation binding of TAMRA-NT analogs, membranes from HEK293T cells; conditions: read-out: Kd for Nluc-NK1R; pH 7.4, saturation binding

T2 sequence (P25103 whole entry): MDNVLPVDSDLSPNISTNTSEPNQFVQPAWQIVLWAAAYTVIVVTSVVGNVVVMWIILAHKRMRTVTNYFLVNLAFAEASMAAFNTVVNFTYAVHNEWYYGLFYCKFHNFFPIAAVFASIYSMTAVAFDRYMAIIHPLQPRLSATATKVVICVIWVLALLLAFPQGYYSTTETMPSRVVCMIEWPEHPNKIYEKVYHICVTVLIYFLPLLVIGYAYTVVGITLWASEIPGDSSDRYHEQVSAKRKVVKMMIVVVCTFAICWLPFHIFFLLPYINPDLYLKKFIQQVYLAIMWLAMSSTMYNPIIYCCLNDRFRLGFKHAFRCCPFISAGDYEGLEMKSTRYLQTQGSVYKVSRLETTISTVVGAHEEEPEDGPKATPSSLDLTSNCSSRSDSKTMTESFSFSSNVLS
T1 sequence (P25103 whole entry): as above
Sequence of human NK1R-NP (P25103 whole entry): as above

In the case of `C[C@@H](O[C@H]1OCCN(Cc2n[nH]c(=O)[nH]2)[C@H]1c1ccc(F)cc1)c1cc(C(F)(F)F)cc(C(F)(F)F)c1` [AP, aprepitant], the “duration of inhibition of capsaicin-evoked mechanical allodynia” value (hNK1R-407 mice) is reported as 2 h, the “effect of higher dose on magnitude or duration of antinociception” value (hNK1R-407 mice) is reported as “did not further increase the magnitude or duration of the antinociception” and the “effect on SP-evoked mechanical allodynia” value [1] is reported as “abolished”. The “effect on SP-induced excitation of spinal neurons” value [2] was “prevented SP-induced excitation”.

`Cc1ccccc1-c1cc(N2CCN(C)CC2)ncc1N(C)C(=O)C(C)(C)c1cc(C(F)(F)F)cc(C(F)(F)F)c1` [NT, netupitant] gave a pKa [3] of 6.81, a logD [4] of 4.97 and a Ki (Nluc-NK1R (human NK1R) [5]; Binding affinity BRET (Nluc-NK1R) pKi at pH 6.0) of 0.851 nM. The Ki (Nluc-NK1R (human NK1R) [5]; Ki (pH 7.4), pH 7.4, tracer PS69) was 0.91 nM, the IC50 (NK1R [6]) was 178 nM and the IC50 (NK1R [7]) was 257 nM. The “Kinetics of inhibition Endosomal miniGαsq (ebBRET) k for 10 µM” value (NK1R [8]) was 0.14 ± 0.02 (9) min^−1, the IC50 (human NK1R-NP; pIC50, inhibition of mGαsq recruitment to NK1R-NP at the plasma membrane (CAAX), CAAX, plasma membrane) was 6.46 nM and the IC50 (human NK1R-NP; pIC50, inhibition of mGαsq recruitment to NK1R-NP in early endosomes (FYVE), FYVE, early endosomes) was 20 nM. For the same compound, the “duration of inhibition of capsaicin-evoked mechanical allodynia” value (hNK1R-407 mice) was 4 h and the “effect of higher dose on magnitude or duration of antinociception” value (hNK1R-407 mice) was “did not further increase the magnitude or duration of the antinociception”.

For “PS68: fluorescent tetramethylrhodamine (TAMRA) derivative of NT, also referred to as TAMRA-NT”, the Kd (Nluc-NK1R (human NK1R) [9]) was 1.9 ± 0.39 nM.

“PS69: fluorescent TAMRA derivative of NT used as tracer in competition binding” gave a Kd (Nluc-NK1R (human NK1R) [9]) of 0.81 ± 0.065 nM.
